Tests used:
[1] = tested on: soybeans (Fukuyutaka); assay: Experimental Example 1: seed coating, number of root nodules; type: in vivo, soybean; settings: Table 1-2
Protocol: (§1) A solution of SF, SL, or RL dissolved in water (a composition for promoting root nodule formation) as the following amount in each of the following treatments was prepared. The seeds of soybeans (Fukuyutaka) were coated using the solution in an amount of 800 μL/100 g seed to obtain coated seeds.
(§2) A 9 cm poly pot was filled with culture soil and seeded with three coated seeds in each pot.
(§3) After seeding, the coated seeds were cultivated in a greenhouse set at 28° C. during the day (14h) and 18° C. at night (10h).
(§4) Seven days after the seeding, the soybeans in each pot were thinned to one plant, and each pot was irrigated with 4.3 ml of a mixture of rhizobium materials (rhizobium and azospirillum) mixed with water at a proportion of 10 g/L.
(§5) Twenty-one days after the irrigation, the roots were washed with water so as not to remove root nodules, the culture soil was removed, and then, the root nodules formed on the roots were collected.
After the seeding, each pot was fertilized with ½ Hoagland solution once a week. In addition, experiments were conducted on eight pots (eight plants) in each treatment.
(§6) A plurality of experiments were conducted by changing the type of the composition for promoting root nodule formation and the like. Tables 1-1 and 1-2 show the date of seeding, the date of irrigating, the date of investigating the number of root nodules, the amount of SF, SL, or RL in the composition for promoting root nodule formation, and the investigation result of the number of root nodules. Note that the number of root nodules is indicated by a relative value with Tl taken as 100, with a numerical value in parentheses indicating the average number of root nodules actually measured (pieces/plant).

[2] = tested on: soybeans (Fukuyutaka); assay: Experimental Example 4: soil irrigation with biosurfactant and/or KVP, root nodule number and weight, root weight; type: in vivo, soybean; settings: with rhizobium materials
Protocol: (§7) For each of the following treatments, to a mixture of rhizobium materials (rhizobium and azospirillum) mixed with water at a proportion of 10 g/L, SF, SL, or RL was added in the following amount to prepare a solution comprising the rhizobium materials and SF, SL, or RL (a composition for promoting root nodule formation).
A 9 cm poly pot was filled with sterilized fertilizer-free culture soil (Heiwa) and seeded three seeds of soybeans (Fukuyutaka) in each pot.
(§8) After seeding, the seeds were cultivated in a greenhouse set at 28° C. during the day (14h) and 18° C. at night (10h).
as §4, with “ml of the composition for promoting root nodule formation (in the treatment T1, a mixture” for “ml of a mixture”, “of 10 g/L).” for “of 10 g/L.”
as §5
(§9) After the seeding, each pot was fertilized with ½ Hoagland solution (50 mL) once a week. In addition, experiments were conducted on eight pots (eight plants) in each treatment.
as §6, with “4-1” for “1-1”, “4-2” for “1-2”, “nodules,” for “nodules, the amount of SF, SL, or RL in”, “(pieces/plant). In addition, fresh root nodule weight means the weight of root nodules before drying on the day of collection and is indicated by a relative value with Tl taken as 100. Dried underground part weight means the weight of roots dried for 48 hours at 80° C. and indicated by a relative value with Tl taken as 100.” for “(pieces/plant).”

[3] = tested on: soybeans (Fukuyutaka); assay: Experimental Example 2: soil irrigation with composition comprising rhizobium materials, number of root nodules; type: in vivo, soybean; settings: Table 2-2, irrigation
Protocol: as §7, with “treatment,” for “treatments,”
A 9 cm poly pot was filled with culture soil and seeded with three seeds of soybeans (Fukuyutaka) in each pot.
as §8
as §4, with “ml of the composition for promoting root nodule formation (in the treatment T1, a mixture” for “ml of a mixture”, “of 10 g/L).” for “of 10 g/L.”
as §5, §9
as §6, with “2-1” for “1-1”, “2-2” for “1-2”, “nodules,” for “nodules, the amount of SF, SL, or RL in”, “T1” for “Tl”

[4] = tested on: soybeans (Fukuyutaka); assay: Experimental Example 3: seed coating with biosurfactant and/or KVP, number of root nodules; type: in vivo, soybean; settings: Table 3-2
Protocol: as §1, with “RL and/or KVP” for “RL”
as §2, §3
Seven days after the seeding, the soybeans in each pot were thinned to one plant, and each pot was irrigated with 4.3 mL of a mixture of rhizobium materials (rhizobium and azospirillum) mixed with water at a proportion of 10 g/L.
as §5, §9
as §6, with “3-1” for “1-1”, “3-2” for “1-2”, “amounts” for “date of seeding, the date of irrigating, the date of investigating the number of root nodules, the amount”, “RL and/or KVP” for “RL”, “formation” for “formation,”

[5] = tested on: Japanese mustard spinach (Haru no Senbatsu); assay: Experimental Example 5: foliar application, microscopic observation of root hair; type: in vivo; parameters: key: those with a significant root hair increase observed were evaluated as AA; those with a root hair increase observed were evaluated as BB; those with no root hair increase observed were evaluated as CC; those with an overall or partial root hair decrease observed were evaluated as DD
Protocol: An observation tank formed with ½ MS agar medium (0.8% agar) was prepared in an acrylic tank. Japanese mustard spinach (Haru no Senbatsu) was seeded near the surface of the observation tank. After seeding, the Japanese mustard spinach was cultivated in an incubator set in a light period (6:00-18:00, temperature 26° C., illuminance 120 μmol/m^2·s) and a dark period (18:00-6:00, temperature 18° C.). Twelve to fourteen days after the seeding, the following liquid (a composition for promoting root hair formation) was applied on the leaf surfaces of the plant body (foliar application) so as not to drip on the agar in each of the following treatments. […] A plurality of experiments were conducted by changing the date of seeding, the date of foliar application, the date of observation, and the type of the composition for promoting root hair formation and the like. Tables 5 to 9 show the composition for promoting root hair formation, the outline of operation and the observation results of root hair.

[6] = Table 4-2, single agent diluted 1000 times
[7] = Table 4-2, single agent diluted 10000 times
[8] = seed coating SL or RL 0.5 g/t seed (diluted 16000 times)
[9] = seed coating SL or RL 5 g/t seed (diluted 1600 times)

Row | Substance | Number of Root Nodules, average number actually measured ([1]; seed coating 1 g/t seed) | Number of Root Nodules, relative value with T1 taken as 100 ([1]; seed coating 1 g/t seed) | Number of Root Nodules, average number actually measured ([1]; seed coating 10 g/t seed) | Number of Root Nodules, relative value with T1 taken as 100 ([1]; seed coating 10 g/t seed) | Dried Underground Part Weight, relative value with T1 taken as 100 [2, 6] | Fresh Root Nodule Weight, relative value with T1 taken as 100 [2, 6] | Number of Root Nodules, average number actually measured [2, 6] | Number of Root Nodules, relative value with T1 taken as 100 [2, 6] | Dried Underground Part Weight, relative value with T1 taken as 100 [2, 7] | Fresh Root Nodule Weight, relative value with T1 taken as 100 [2, 7] | Number of Root Nodules, average number actually measured [2, 7] | Number of Root Nodules, relative value with T1 taken as 100 [2, 7] | Number of Root Nodules, average number actually measured ([3]; diluted 1000 times) | Number of Root Nodules, relative value with T1 taken as 100 ([3]; diluted 1000 times) | Number of Root Nodules, average number actually measured ([3]; diluted 5000 times) | Number of Root Nodules, relative value with T1 taken as 100 ([3]; diluted 5000 times) | Number of Root Nodules, average number actually measured ([3]; diluted 10000 times) | Number of Root Nodules, relative value with T1 taken as 100 ([3]; diluted 10000 times) | Number of Root Nodules, average number actually measured [4, 8] | Number of Root Nodules, relative value with T1 taken as 100 [4, 8] | further results
1 | rhamnolipid [RL] | 16.0 pieces/plant | 137 | 13.2 pieces/plant | 113 | 105 | 115 | 19.5 pieces/plant | 116 | 105 | 114 | 18.5 pieces/plant | 110 | 13.6 pieces/plant | 116 | 13.6 pieces/plant | 116 | 13.4 pieces/plant | 115 | 24.6 pieces/plant | 105 | Number of Root Nodules, average number actually measured ([1]; seed coating 50 g/t seed): 15.3 pieces/plant; Number of Root Nodules, relative value with T1 taken as 100 ([1]; seed coating 50 g/t seed): 131; Number of Root Nodules, average number actually measured [4, 9]: 25.3 pieces/plant; Number of Root Nodules, relative value with T1 taken as 100 [4, 9]: 107; Observation Result (root hair) ([5]; Table 7, aqueous solution diluted 1000 times): BB; Observation Result (root hair) ([5]; Table 7, aqueous solution diluted 2000 times): BB; Observation Result (root hair) ([5]; Table 7, aqueous solution diluted 5000 times): BB
2 | sophorolipid [SL] | 15.3 pieces/plant | 131 | 13.3 pieces/plant | 114 | 102 | 113 | 18.5 pieces/plant | 110 | 185 | 105 | 17.8 pieces/plant | 105 | 15.7 pieces/plant | 134 | 12.1 pieces/plant | 104 | 11.9 pieces/plant | 102 | 24.5 pieces/plant | 104 | Number of Root Nodules, average number actually measured ([1]; seed coating 0.1 g/t seed): 11.8 pieces/plant; Number of Root Nodules, relative value with T1 taken as 100 ([1]; seed coating 0.1 g/t seed): 101; Number of Root Nodules, average number actually measured [4, 9]: 24.9 pieces/plant; Number of Root Nodules, relative value with T1 taken as 100 [4, 9]: 106; Observation Result (root hair) ([5]; Table 6, aqueous solution diluted 1000 times): BB; Observation Result (root hair) ([5]; Table 6, aqueous solution diluted 2000 times): BB
